{"source": "patent US12221461B2", "about": "“Saponin adjuvant and evaluation method thereof” (OBI PHARMA, INC., priority 2018, dated 2025)", "origin": "cited, not measured here"}
{"test_system": "antibody levels", "conditions": "previous study, Kensil et al., J. Immunol. 146, 431-437, 1991"}
{"substance": "QS-21", "boost of antibody levels (adjuvant effect)": "able to dramatically boost antibody levels"}
{"substance": "QS-17", "boost of antibody levels (adjuvant effect)": "able to dramatically boost antibody levels"}
{"substance": "QS-18", "boost of antibody levels (adjuvant effect)": "able to dramatically boost antibody levels"}
